The values below come from patent US9863933B2, “Method for determining the repair activity of non-homologous end joining” (Soochow University, priority 2015, dated 2018).

What all share (format): cell-based
In data set [1] the test system is NHEJ repair activity in 293T cells. Briefly: NHEJ repair activity by TALEN-induced HPRT mutation, 6-TG selection and MTT cell viability. The note with it: for inhibition rate of NHEJ repair activity: then 30 μmol/L 6-TG 72 h. As for the experimental part:
The inhibiting effects of different concentrations of NU7441 on NHEJ are determined by using the TALEN technology, and the specific steps are as follows:
(1) a TALEN plasmid for HPRT gene was constructed. The specific steps comprise: a left-arm recognition sequence ATGACCTTGATTTA (SEQ ID NO:1) and a right-arm recognition sequence CCAAATCCTCAGCA (SEQ ID NO:2) of the target HPRT gene were designed according to the TALEN design principle, and the two recognition sequences were inserted into a corresponding backbone carrier according to the method indicated on the TALEN construction kit. Competent E. coli cells were transformed with the carrier, uniformly spread on a kanamycin-resistant (20 μg/ml) plate and cultured in an incubator at 37° C. for 12-16 h, then 3-5 clones were selected and inoculated in 5 ml LB culture solution (containing 20 μg/ml kanamycin), and cultured in a shaker at 250 rpm under 37° C. for 16 h, plasmids were extracted and sequenced, and the obtained sequences were compared with the designed recognition sequences, ensuring the left-arm and right-arm TALEN plasmids with correct sequences were obtained.
(2) the left-arm and right-arm TALEN plasmids were transfected into 293T cells. The specific steps comprise: 293T cells were inoculated into a culture dish of 6 cm, and 4 μg left-arm plasmids and 4 μg right-arm plasmids were transfected into the 293T cells by using Lipofectamine 3000 when cell density reached 70%.
(3) the 293T cells were treated with different concentrations of the inhibitor NU7441. […]
(§1) (5) cell viability was determined by a MTT method. The specific steps comprise: a MTT solution was added after the treatment was completed, 2 h later, the formed blue formazan particles were dissolved with DMSO, and then the light absorption value of each well was determined at OD570 nm via a microplate reader. […]

The test system is the same in data set [2]. Kind of data set: NHEJ repair activity by CRISPR/Cas9-induced HPRT mutation, 6-TG selection and MTT cell viability (NU7441 treatment time). As for the experimental part:
The time dependence of the inhibiting effect of 2.0 μmol/L NU7441 on NHEJ was determined by using the CRISPR/Cas9 technology, specific steps were as follows:
(1) a Cas9/gRNA plasmid was constructed for HPRT gene. The specific steps comprise: a target site primer of HPRT was designed according to a gRNA design principle, wherein the forward primer is […] (SEQ ID NO:3), and the reverse primer is […] (SEQ ID NO:4). The primers were annealed to form a dimer, and the gRNA-sequence primer dimer was inserted into a Cas9/gRNA plasmid according to the method indicated on the CRISPR/Cas9 construction kit. Competent E. coli cells were transformed with the plasmid, spread on an ampicillin-resistant plate. 3-5 clones were selected and cultured in a shaker, plasmids were extracted and sequenced, and the obtained sequences were compared with the designed recognition sequences, ensuring the Cas9/gRNA plasmids with correct sequences were obtained.
(2) the Cas9/gRNA plasmids were transfected into 293T cells. […]
as §1

Data set [3] shares this test system. Kind of data set: NHEJ repair activity by CRISPR/Cas9-induced HPRT mutation with siRNA co-transfection, 6-TG selection and MTT cell viability. The note with it: CRISPR/Cas9, 3 μg siRNA co-transfected, versus negative control siRNA. The procedure: The inhibiting effect of DNA-PKcs siRNA on NHEJ was determined by using a CRISPR/Cas9 technology, and the specific steps comprise:
(1) a Cas9/gRNA plasmid was constructed for HPRT gene, and the specific steps are as described in the embodiment 2.
(2) the Cas9/gRNA plasmid and DNA-PKcs siRNA were co-transfected into 293T cells. The specific steps comprise: 293T cells were inoculated into a culture dish of 6 cm, and 3 μg Cas9/gRNA plasmid and 3 μg DNA-PKcs siRNA were co-transfected into the 293T cells by using Lipofectamine 3000 when cell density reached 70%, and a negative control siRNA was transfected for the negative control group. The gene sequence of DNA-PKcs siRNA was […] (SEQ ID NO:5).
(3) the cells were treated with 6-TG. The specific steps comprise: the cells were inoculated into a 96-well plate after the transfection is performed for 24 h, then the culture medium was replaced with a DMEM culture medium containing 30 μmol/L 6-TG after cell attachment, and the cells were continually cultured for 72 h.
(4) cell viability was determined by a MTT method. The specific steps comprise: a MTT solution was added after the treatment was completed, 2 h later, the formed blue formazan particles were dissolved with DMSO, and then the light absorption value of each well was determined at OD570 nm via a microplate reader. […]

On to `O=c1cc(N2CCOCC2)oc2c(-c3cccc4c3sc3ccccc34)cccc12` [NU7441], for which the “inhibition rate of NHEJ repair activity” value in data set [1] (0.5 μmol/L for 4 h) is “about 50%”; in data set [1] (1.0 μmol/L for 4 h), “about 50%”; in data set [2] (CRISPR/Cas9, 2.0 μmol/L for 1 h, then 30 μmol/L 6-TG 72 h), “about 50%”. In addition, the “inhibiting effect on NHEJ repair activity” value in data set [1] (concentration increased to 2.0 μmol/L, 4 h (compared with 0.5, 1.0 μmol/L)) is “the inhibiting effect was reduced”. Also, in data set [2] (CRISPR/Cas9, 2.0 μmol/L, treatment longer than 1 h (2 and 4 h)), the “inhibiting effect on NHEJ activity” value was “reduced over time”.

As for “DNA-PKcs siRNA: siRNA of the NHEJ repair molecule DNA-PKcs, sequence UUCUCCGAACGUGUCACGUTT (SEQ ID NO:5), synthesized by GenePharma (chemistry not given here)”, the “repair activity of NHEJ” value in data set [3] is “inhibited significantly”.
